Like-named read-outs stand apart in the source and are kept apart here.
Key:
GSK3β [1] = biological target: T1, GSK3β (Homo sapiens, UniProt P49841); settings: read-out: GSK3β Ki
Procedure: (§1) The assay was initiated with the addition of ATP, following 15 minutes pre-incubation of enzyme and inhibitor at room temperature in the reaction mixture. The reaction was stopped after 30 minutes at room temperature by the addition of 50 μL of 80 mM EDTA.

CDK2/Cyclin E1 = CDK2/Cyclin E1 (Homo sapiens (Human), UniProt P24941); test: CDK2/Cyclin E1 full length mobility shift assay; format: biochemical
Procedure: CDK2/Cyclin E1 Full Length Mobility Shift Assay
Wild-type CDK2/wild-type full length Cyclin E1 enzyme complex was produced in-house (baculoviral expression, LJIC-2080/LJIC-2103) and phosphorylated by CDK7/Cyclin H1/Mat1 enzyme complex with CDK2:CDK7 ratio of 50:1 (concentration mg/mL) in the presence of 10 mM MgCl2 and 5 mM ATP at room temperature for one hour. […] The assay was initiated with the addition of ATP, following a fifteen minutes pre-incubation of enzyme and inhibitor at room temperature in the reaction mixture. The reaction was stopped after 45 minutes at room temperature by the addition of 50 μL of 80 mM EDTA.

GSK3β [2] = biological target: T1, GSK3β; test: biochemical; settings: GSK3β Ki (nM)
Procedure: as §1

Structure (SMILES)	Ki (GSK3β [1])	Ki (CDK2/Cyclin E1)	Ki (GSK3β [2])
CC[C@H](C)NC(=O)O[C@@H]1CC[C@H](c2cc(NC(=O)c3cc(COC)nn3C)n[nH]2)C1 [Example 14, (1R,3S)-3-[3-({[3-(methoxymethyl)-1-methyl-1H-pyrazol-5-yl]carbonyl}amino)-1H-pyrazol-5-yl]cyclopentyl (2S)-butan-2-ylcarbamate]	294 nM	0.27 nM	–
Cc1ncc(CC(=O)Nc2cc([C@@H]3CC[C@H](OC(=O)N[C@@H]4CCOC[C@H]4C)C3)[nH]n2)s1 (single isomer, unassigned; isomer b) [Example 511, (1S,3R)-3-(3-{[(2-methyl-1,3-thiazol-5-yl)acetyl]amino}-1H-pyrazol-5-yl)cyclopentyl [(3S*,4R*)-3-methyltetrahydro-2H-pyran-4-yl]carbamate- Isomer B]	–	1.52 nM	4.74 nM
Cc1cc(CC(=O)Nc2cc([C@H]3CC[C@@H](OC(=O)N4CCCC[C@@H]4C)C3)[nH]n2)on1 [Example 640, (1R,3S)-3-(3-{[(3-methyl-1,2-oxazol-5-yl)acetyl]amino}-1H-pyrazol-5-yl)cyclopentyl(2S)-2-methylpiperidine-1-carboxylate]	13.3 nM	–	–
Cc1ncc(CC(=O)Nc2cc([C@H]3CC[C@@H](OC(=O)NC(C)C)C3)[nH]n2)s1 [Example 2, (1R,3S)-3-(3-{[(2-methyl-1,3-thiazol-5-yl)acetyl]amino}-1H-pyrazol-5-yl)cyclopentyl propan-2-ylcarbamate]	–	0.31 nM	–
COc1ccc(CC(=O)Nc2cc([C@@H]3CC[C@H](OC(=O)N4CCC4(C)C)C3)[nH]n2)cn1 [Example 145]	–	0.12 nM	–
Cc1ncc(CC(=O)Nc2cc([C@@H]3CC[C@H](OC(=O)N[C@@H]4CCOC[C@H]4C)C3)[nH]n2)s1 (single isomer, unassigned; isomer a) [Example 510, (1S,3R)-3-(3-{[(2-methyl-1,3-thiazol-5-yl)acetyl]amino}-1H-pyrazol-5-yl)cyclopentyl [(3S*,4R*)-3-methyltetrahydro-2H-pyran-4-yl]carbamate- Isomer A]	–	0.19 nM	14 nM

Source: patent US11718603B2, “CDK2 inhibitors” (Pfizer Inc., priority 2019, dated 2023)
